Columns and labels:
[1] = test system: EL4-GD2+ cells; test: 3H-thymidine incorporation (proliferation) assay, EL4-GD2+ stimulator cells; assay type: cell-based, mouse; details: 25 μg/mL Mitomycin for 1 h
Protocol: (§1) EL4-GD2+ cells and control Jurkat cells were treated with 25 μg/mL Mitomycin (Sigma) for 1 h to arrest proliferation. After the cells were washed three times with media to remove Mitomycin, they were plated in 96-well plates at 2×10^5 cells/well. Single cell suspensions of splenocytes were obtained from twice immunized (as above) and from vehicle-injected control mice. Cells were separated following the protocol of the EasySep Negative Selection Mouse T-cell Enrichment Kit (Stemcell Technologies). […] The T-cells were plated at a ratio of 10:1 with Mitomycin-treated EL4 or Jurkat cells. As controls, cultures of T-cells alone (no stimulating tumor cells) or T-cells treated with Concanavalin A were used. After 5 days of culture, 0.1 μCi/well 3H-thymidine (Sigma-Aldrich) was added. DNA-incorporated 3H-thymidine was counted by liquid scintillation, and data are reported as average cpm ±SD. […] After 7 days, in vitro, cell viability was assessed by staining with 0.1% Trypan Blue, and cells were counted using a hemocytometer. Bright field images were acquired using an Olympus CKX41 microscope, mounted with an Infinity 1 digital camera and Infinity Analyze software (Lumenera Corporation).

[2] = test system: Jurkat cells; test: 3H-thymidine incorporation (proliferation) assay, Jurkat stimulator cells; assay type: cell-based; details: 25 μg/mL Mitomycin for 1 h
Protocol: as §1

[3] = Water solubility; assay type: physicochemical
Description: Carbohydrates were synthesized as previously described (Gilbert, M., et al. J Biol Chem. 277(1):327-337, 2002; Chiu, C. P., et al. Nat Struc Mol Bio. 11(2)163-170, 2004; and Blixt, O., Carbohydrate Research. 340(12):1963-1972, 2005) by modification of the process for phenylthio-GD2 in which the phenylthio moiety was substituted with a p-aminophenylether in the starting p-aminophenyl-β-D-lactopyranoside (AP-Lac, from Toronto Research Chemicals), that was subsequently used to enzymatically synthesize the respective ganglioside carbohydrate for conjugation to the dendrimer (see below). AP-GD2 and AP-GD3 were water soluble (>20 mg/ml). The measured molecular weights of AP-GD2 (1218 g/mol) and AP-GD3 (927 g/mol) corresponded to expected values. Structures were verified by 1D and 2D NMR spectroscopy and mass spectrometry (EI-MS). The AP-GD2 and AP-GD3 intermediates were purified to >99% purity by size-exclusion chromatography (Superdex 30 16 mm×85 cm column, GE Health Care) before their application in the synthesis of the tetrameric vaccines.

[4] = test system: T-cells; test: 3H-thymidine incorporation of T-cells treated with Concanavalin A; assay type: cell-based, mouse; details: ConA stimulation; mean±SD
Protocol: as §1

## CO[C@@]12[C@H](COC(N)=O)C3=C(C(=O)C(C)=C(N)C3=O)N1C[C@@H]1N[C@@H]12 [Mitomycin]
[1]
  3H-thymidine incorporation of mitomycin-treated EL4-GD2+ cells: 188±4 cpm
[2]
  3H-thymidine incorporation of mitomycin-treated Jurkat cells: 107±5 cpm

## p-amino phenyl ether-GD3 [AP-GD3]
[3]
  water solubility (in words): water-soluble

## Concanavalin A [ConA]
[4]
  3H-thymidine incorporation, T-cells from Tetra-GD2 vaccinated mice: 19,834±309 cpm
  3H-thymidine incorporation, T-cells from naive mice: 21,457±504 cpm

## p-amino phenyl ether-GD2 [AP-GD2]
[3]
  water solubility (in words): water-soluble

Source: patent US11786586B2, “Carbohydrate structures and uses thereof” (AOA Dx, priority 2016, dated 2023)
